The test system of assay [1] is isolated mouse RGCs. Description: Immunofluorescent staining of TUBB3 and F-actin in isolated mouse RGCs. It is filed as cell-based. As to conditions: 1 μM, 4 days. An excerpt: (§1) In order to assess the effect of xEFN peptide supplementation on Eph-receptor modulation, various in vitro assays were employed on isolated mouse RGCs. […] Similarly, xEFN_RBD1, and 3 inhibited the phosphorylation of Rac1 by pre-clustered ephirnA5 ligand stimulation. […] TUBB3 is a marker specific for neuronal microtubules and functions as a neuronal-specific marker.

Assay [2] relates to phosphorylated Rac1. Kind of assay: Western blot of phosphorylated Rac1 in mRGCs. The note with it: 500 nM. Format: cell-based, mouse. On the procedure:
On day 4, cells were treated with pre-clustered recombinant mouse EfnA5-His ligand [(+) Control, using anti-His_Tag antibody for 30 minutes] for 2 hours. Cells were then lysed in RIPA buffer containing protease and phosphatase inhibitor cocktails and maintained on ice. Protein was quantified using a BCA assay, and 10 μg of total protein was run on a TGX stain-free Any kD gel (BioRad) and transferred using the trans-blot turbo system (BioRad). Following transfer and blocking in 5% nonfat milk for 1 h, blots were probed with antibodies against RhoA, phosphorylated Rac1, ARHGEF15, Ephexin-1, or beta-actin as an endogenous loading control overnight at 4° C. Blots were then washed 3×5 min in PBS-T and incubated in the appropriate HRP-conjugated secondary antibody for 2 h at room temperature. Blots were imaged using chemiluminescent ECL substrate (Pierce) on a BioRad ChemiDoc MP imaging system and software.
In general terms: In western blotting, separated proteins are transferred to a membrane and probed.

Assay [3] concerns the target T1, EphB2 (Mus musculus, UniProt P54763).
T1 construct: endogenous in cells; host or cells: primary mouse retinal ganglion cells
T1 sequence (P54763 19-986): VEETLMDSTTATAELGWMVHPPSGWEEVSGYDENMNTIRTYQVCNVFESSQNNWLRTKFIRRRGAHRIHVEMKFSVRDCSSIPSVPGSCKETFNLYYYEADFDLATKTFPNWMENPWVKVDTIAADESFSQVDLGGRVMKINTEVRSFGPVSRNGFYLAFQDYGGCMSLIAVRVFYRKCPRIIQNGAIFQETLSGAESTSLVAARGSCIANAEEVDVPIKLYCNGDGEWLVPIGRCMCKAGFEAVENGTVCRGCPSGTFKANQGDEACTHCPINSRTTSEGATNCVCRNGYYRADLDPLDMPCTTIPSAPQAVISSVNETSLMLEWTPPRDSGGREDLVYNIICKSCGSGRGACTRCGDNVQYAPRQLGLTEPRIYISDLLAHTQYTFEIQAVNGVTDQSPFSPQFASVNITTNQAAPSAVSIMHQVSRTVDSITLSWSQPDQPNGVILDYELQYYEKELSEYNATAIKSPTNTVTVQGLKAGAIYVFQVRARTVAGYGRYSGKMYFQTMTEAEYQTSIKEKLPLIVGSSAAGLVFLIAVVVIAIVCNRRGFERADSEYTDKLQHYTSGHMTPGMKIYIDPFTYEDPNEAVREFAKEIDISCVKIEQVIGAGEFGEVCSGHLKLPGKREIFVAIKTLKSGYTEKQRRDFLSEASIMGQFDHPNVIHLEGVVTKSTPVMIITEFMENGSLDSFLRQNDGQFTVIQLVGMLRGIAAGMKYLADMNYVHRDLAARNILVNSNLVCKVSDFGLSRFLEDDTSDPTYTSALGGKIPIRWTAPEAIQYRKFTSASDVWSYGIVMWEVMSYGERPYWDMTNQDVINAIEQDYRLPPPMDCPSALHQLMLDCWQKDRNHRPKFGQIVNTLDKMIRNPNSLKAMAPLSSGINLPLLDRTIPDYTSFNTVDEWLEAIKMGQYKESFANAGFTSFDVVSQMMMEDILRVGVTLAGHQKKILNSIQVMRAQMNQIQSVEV
Kind of assay: Western blot of EphB2 expression in isolated mouse RGCs. It is filed as cell-based. The note with it: 1 μM, 4 days.
Description: as §1

Results on 1 sequence are retold here after patent US20250042968A1, “EPHRIN LIGAND MIMETIC PEPTIDES FOR THE TREATMENT OF NEURODEGENERATIVE DISEASES” (University of Miami, priority 2022, published 2025).

Entries after “also recorded” stand apart in the source; their conditions may differ.

For the sequence FTIKFQEFSPNLWGL [xEFN_RBD3], in assay [1], the “neuroprotection seen by TUBB3 expression versus control in vitro cultures” value is listed as “neuroprotection; also recorded: effectively preserved RGCs”. The “phosphorylation of Rac1 by pre-clustered ephrinA5 ligand stimulation” value in assay [2] was “inhibited”. In addition, in assay [3], the “expression of EphB2 (western blot)” value is reported as “reduced expression; also recorded: effectively decreased expression”.
